This is an account of results in the supplement of paper PMC11061612.

SMILES strings stand for the structures.

Assay [1] concerns OVCAR-4 (Ovarian Carcinoma). The experiment in a line: combination Emax (second highest fraction inhibited in the dose matrix, 72 h); higher = more inhibition; extreme values may be limits of the assay. Put shortly:
(§1)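 Cell lines in DMEM/F12 or RPMI with 10% FBS were plated in 1536-well plates, held 24 hours at 37°C, 5% CO2, then given two-drug dose matrices for 72 hours (DMSO typically 0.2%). Viability was read by CellTiter-Glo 2.0 luminescence and scaled as inhibition from 0 (vehicle wells) to 1 (blank wells). Combination Emax is the second-highest inhibition in the matrix; Bliss excess is observed combination effect minus expected EA + EB − EA·EB, EA and EB being single-agent effects.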

Assay [2] concerns NCI-H358 (Lung Adenocarcinoma). The assay is described as above. Put shortly:
as §1

Assay [3] has as its system EFM-19 (Breast Carcinoma). The assay is described as above. Put shortly:
as §1

Assay [4] relates to BT-549 (Breast Carcinoma). Described as above. Put shortly: as §1
The test system of a further assay is TK10 (Kidney Carcinoma). Described as above. Put shortly: as §1
Assay [5] relates to OE19 (Esophageal Adenocarcinoma). The assay is described as above. Put shortly:
as §1

In assay [6] the test system is Hs-766T (Pancreatic Carcinoma). The description is as above. Put shortly: as §1
The next assay relates to UACC-62 (Melanoma). The description is as above. Put shortly: as §1
Assay [7] deals with MLMA (Other Blood Carcinomas). Described as above. Put shortly:
as §1

The test system of assay [8] is KMOE-2 (Acute Myeloid Leukemia). The assay is described as above. Put shortly: as §1
The next assay relates to D-263MG (Glioblastoma). The description is as above. Put shortly:
as §1

Assay [9] has as its system SW13 (Other Solid Carcinomas). Described as above. Put shortly:
as §1

Assay [10] has as its system C-4-I (Cervical Carcinoma). Described as above. Put shortly: as §1
The subject of assay [11] is SCC-15 (Oral Cavity Carcinoma). The assay is described as above. Put shortly:
as §1

In assay [12] the test system is EoL-1-cell (Acute Myeloid Leukemia). The description is as above. Put shortly:
as §1

For assay [13], the system named is TE-1 (Esophageal Squamous Cell Carcinoma). The description is as above. Put shortly: as §1
The test system of assay [14] is NCI-H727 (Other Solid Carcinomas). The description is as above. Put shortly:
as §1

Assay [15] has as its system SU8686 (Pancreatic Carcinoma). The assay is described as above. Put shortly: as §1
In assay [16] the test system is AMO-1 (Plasma Cell Myeloma). Described as above. Put shortly: as §1
Assay [17] relates to Caov-4 (Ovarian Carcinoma). Description: Bliss excess, mean over the matrix (fraction); higher = more synergy. Put shortly:
as §1
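For Bliss excess, mean over the matrix in this document: after 72 h of two-drug dosing.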

Consider `CN(CCO)CC[C@H](CSc1ccccc1)Nc1ccc(S(=O)(=O)NC(=O)c2ccc(N3CCC([C@@H](O)c4ccccc4-c4ccc(Cl)cc4)CC3)cc2)cc1S(=O)(=O)C(F)(F)F` [AZD4320] + CN(C)CCCOc1ccc(-c2ccc3ncc4c(c3c2)n(C2CCOCC2)c(=O)n4C)cn1 [AZD0156] (first compound max 1 µM, 7x7, partner max 1 µM), for which the “combination Emax” value in assay [1] came to 0.184; in assay [2], 0.217; in assay [3], 0.797; in assay [4] it was 0.227; in the assay with TK10 (Kidney Carcinoma) it was 0.375; in assay [5] it was 0.291. The “combination Emax” value was found to be 0.21 in assay [6]; 0.182 with UACC-62 (Melanoma); 0.374 in [7]; 0.847 in assay [8]; 0.0929 in the assay with D-263MG (Glioblastoma); 0.14 in assay [9]. The “combination Emax” value in assay [10] stood at 0.145; in assay [11] it was 0.202; in [12], 1; in assay [13], 0.37; in assay [14] it was 0.214; in assay [15] it was 0.0423. Besides, the “combination Emax” value in assay [16] is 0.0251. Further, the Bliss excess in assay [17] is -0.0319.

As for `COc1nnc2ccc(N3CCC(c4ccc(OCCN5CCN(C)C(=O)[C@H]5C)cc4)CC3)nn12` [AZD5153] + C=CCn1c(=O)c2cnc(Nc3ccc(N4CCN(C)CC4)cc3)nc2n1-c1cccc(C(C)(C)O)n1 [AZD1775] (first compound max 1 µM, partner max 1 µM), the “combination Emax” value in [1] came to 0.583; in assay [2], 0.63; in assay [3], 0.573; in [4], 0.732; in the assay with TK10 (Kidney Carcinoma), 0.604; in assay [5], 0.539. Moreover, the “combination Emax” value amounted to 0.448 in assay [6]; 0.577 with UACC-62 (Melanoma); 0.938 in assay [7]; 0.971 in [8]; 0.34 in the assay on D-263MG (Glioblastoma); 0.561 in assay [9]. Moreover, the “combination Emax” value amounted to 0.838 in assay [10]; 0.435 in assay [11]; 1 in assay [12]; 0.591 in [13]; 0.431 in [14]; 0.171 in assay [15]. Moreover, the “combination Emax” value in [16] is 0.978. In addition, the Bliss excess in assay [17] was -0.0316.

As for `COc1nnc2ccc(N3CCC(c4ccc(OCCN5CCN(C)C(=O)[C@H]5C)cc4)CC3)nn12` [AZD5153] + CC1(C)CCC(CN2CCN(c3ccc(C(=O)NS(=O)(=O)c4ccc(NCC5CCOCC5)c([N+](=O)[O-])c4)c(Oc4cnc5[nH]ccc5c4)c3)CC2)=C(c2ccc(Cl)cc2)C1 [Venetoclax] (first compound max 1 µM, 7x7, partner max 1 µM), the “combination Emax” value in assay [1] amounted to 0.444; in assay [2], 0.345; in [3] it was 0.359; in assay [4] it was 0.518; in the assay on TK10 (Kidney Carcinoma), 0.594; in assay [5], 0.494. Also, the “combination Emax” value was determined as 0.444 in assay [6]; 0.605 in the assay with UACC-62 (Melanoma); 0.912 in [7]; 0.847 in assay [8]; 0.369 in the assay on D-263MG (Glioblastoma); 0.384 in assay [9]. Further, the “combination Emax” value came to 0.514 in [10]; 0.335 in [11]; 1 in assay [12]; 0.4 in assay [13]; 0.34 in [14]; 0.0794 in assay [15]. Besides, the “combination Emax” value in [16] came to 0.907. Further, the Bliss excess in [17] stood at 0.0179.

As for `COc1nnc2ccc(N3CCC(c4ccc(OCCN5CCN(C)C(=O)[C@H]5C)cc4)CC3)nn12` [AZD5153] + CCN(CCO)CCCOc1ccc2c(Nc3cc(CC(=O)Nc4cccc(F)c4)[nH]n3)ncnc2c1 [AZD2811] (first compound max 1 µM, 7x7, partner max 1 µM), the “combination Emax” value was 0.467 in [1]; 0.352 in [2]; 0.366 in assay [3]; 0.593 in assay [4]; 0.564 in the assay with TK10 (Kidney Carcinoma); 0.693 in [5]. The “combination Emax” value came to 0.416 in [6]; 0.478 with UACC-62 (Melanoma); 0.915 in [7]; 0.901 in assay [8]; 0.445 with D-263MG (Glioblastoma); 0.455 in assay [9]. Further, the “combination Emax” value in assay [10] was determined as 0.565; in assay [11], 0.41; in assay [12], 1; in assay [13] it was 0.49; in assay [14], 0.404; in assay [15] it was 0.0898. In addition, the “combination Emax” value in assay [16] was 0.912. Moreover, the Bliss excess in [17] was -0.0403.

For the compound `COc1nnc2ccc(N3CCC(c4ccc(OCCN5CCN(C)C(=O)[C@H]5C)cc4)CC3)nn12` [AZD5153] + C[C@@H]1COCCN1C2=NC(=NC(=C2)C3(CC3)[S@](=N)(=O)C)C4=C5C=CNC5=NC=C4 [AZD6738] (first compound max 1 µM, 7x7, partner max 10 µM), the “combination Emax” value turned out to be 0.711 in assay [1]; 0.698 in [2]; 0.549 in assay [3]; 0.637 in assay [4]; 0.695 in the assay with TK10 (Kidney Carcinoma); 0.616 in [5]. Besides, the “combination Emax” value in [6] came out at 0.543; in the assay with UACC-62 (Melanoma), 0.664; in [7], 0.967; in assay [8], 0.988; in the assay on D-263MG (Glioblastoma), 0.465; in assay [9], 0.718. The “combination Emax” value amounted to 0.876 in [10]; 0.524 in assay [11]; 1 in assay [12]; 0.617 in assay [13]; 0.59 in assay [14]; 0.1 in [15]. For the same compound, in [16], the “combination Emax” value worked out at 0.978. The Bliss excess in assay [17] stood at 0.097.

With `COc1nnc2ccc(N3CCC(c4ccc(OCCN5CCN(C)C(=O)[C@H]5C)cc4)CC3)nn12` [AZD5153] + Cc1c2c(nn1C)CSCc1cc(n(C)n1)CSc1cc(c3ccccc3c1)OCCCc1c(C(=O)O)n(C)c3c-2c(Cl)ccc13 [AZD5991] (first compound max 1 µM, 7x7, partner max 1 µM), the “combination Emax” value in assay [1] was determined as 0.523; in [2] it was 0.448; in [3], 0.773; in assay [4], 0.814; in the assay on TK10 (Kidney Carcinoma) it was 0.593; in [5] it was 0.623. Also, the “combination Emax” value came out at 0.459 in assay [6]; 0.969 in the assay with UACC-62 (Melanoma); 0.994 in [7]; 0.936 in [8]; 0.98 in the assay on D-263MG (Glioblastoma); 0.969 in assay [9]. Besides, the “combination Emax” value in assay [10] was determined as 0.933; in [11], 0.436; in [12], 1; in assay [13] it was 0.511; in assay [14], 0.388; in [15], 0.134. The “combination Emax” value in assay [16] was 1. In [17], the Bliss excess turned out to be 0.0265.
